Residues, ends and D or L forms follow the SMILES beside them.
Experiments:
U373 (glioblastoma) = test: In vitro cytotoxic activity, MTT assay, 72 hours; assay type: cell-based, human
Protocol: (§1) The cytotoxic activity of synthesized peptides was tested on six human tumor cell lines namely MCF7 (breast), U373 (glioblastoma), PTC, (colon), L132 (lung), Su.86.86 (pancreas), and KB (oral). The tumor cells were collected at exponential growth phase and resuspended in medium (1.5 x 10^6 cells/ml in RPMI 1640 containing 10% FBS). 150µL of medium was added to the wells of a 96-well tissue culture plate (Nunc, Denmark) followed by 30µl of cell suspension. The plate was left in an incubator (37°C, 5% CO2) overnight. 20µl of the peptide (100 pM to 10 µM concentration) was added to marked wells of the 96-well plate. Each concentration was plated in triplicate. 20µl of medium alone was added to control wells while wells without cells served as blanks. A total volume of 200µL was ensured in each well and plate was left in incubator (37°C, 5% CO2). After 72 hours of incubation an MTT assay was performed and percentage cytotoxicity was calculated with respect to control cells.

Su.86.86 (pancreas) = test: In vitro cytotoxic activity, MTT assay, 72 hours; assay type: cell-based, human
Protocol: as §1

PTC, (colon) = test: In vitro cytotoxic activity, MTT assay, 72 hours; assay type: cell-based, human
Protocol: as §1

L132 (lung) = test: In vitro cytotoxic activity, MTT assay, 72 hours; assay type: cell-based, human
Protocol: as §1

MCF7 (breast) = test: In vitro cytotoxic activity, MTT assay, 72 hours; assay type: cell-based, human
Protocol: as §1

L132 (Lunng) = test: In vitro cytotoxic activity of lipo conjugates, MTT assay, 48 hours; assay type: cell-based
Protocol: (§2) The cytotoxic effect of lipo-conjugates of substance P analogs SEQ ID NO: 6, SEQ ID NO: 7 and SEQ ID NO: 8, was studied by MTT assay which is based on the principle of uptake of MTT [3-[4,5-dimethylthiazol-2-yl]-2,5-diphenyl tetrazolium bromide], a tetrazolium salt by the metabolically active cells where it is metabolized by active mitochondria in to a blue colored formazan product which can be read spectrophotometrically. Briefly, tumor cells - KB (Oral squamous), U87MG (Blioblastoma), HBL100 (Breast), HeP2 (Larngeal), ECV304 (Endothelial), PA-1 (Ovary) and L132 (Lunng) were incubated with the peptide analogs for 48 hours at 37°C in a 96-well culture plate, followed by the addition of 100 µg MTT and further incubation of 1 hour. The formazan crystals formed inside the cells were dissolved with a detergent comprising of 10% Sodium dodecyl sulfate and 0.01 N HCl and optical density read on a multiscan ELISA reader. The optical density was directly proportional to the number of proliferating and metabolically active cells. SEQ ID NO: 6

PA-1 (Ovary) = test: as above; assay type: cell-based
Protocol: as §2

U87MG (Blioblastoma) = test: as above; assay type: cell-based
Protocol: as §2

HBL100 (Breast) = test: as above; assay type: cell-based
Protocol: as §2

KB (Oral squamous) = test: as above; assay type: cell-based
Protocol: as §2

ECV304 (Endothelial) = test: as above; assay type: cell-based
Protocol: as §2

HeP2 (Larngeal) = test: as above; assay type: cell-based
Protocol: as §2

SMILES: CC(C)C[C@H](NC(=O)[C@@H](Cc1c[nH]c2ccccc12)NC(=O)[C@H](Cc1ccccc1)NC(=O)[C@@H](Cc1c[nH]c2ccccc12)NC(=O)[C@H](CCC(N)=O)NC(=O)[C@@H](Cc1ccccc1)NC(=O)[C@@H]1CCCN1C(=O)[C@H](CCCCN)NC(=O)[C@@H]1CCCN1C(=O)[C@H](N)CCCNC(=N)N)C(=O)NC1(C(N)=O)CCCC1 [SEQ ID NO: 5, D-Arg-Pro-Lys-Pro-D-Phe-Gln-D-Trp-Phe-D-Trp-Leu-Ac5c-NH2] (HELM PEPTIDE1{[dR].P.K.P.[dF].Q.[dW].F.[dW].L.[O=C(C1(N[*:1])CCCC1)[*:2]].[am]}$$$$V2.0)
- Percentage cytotoxicity at different concentrations (U373 (glioblastoma); 100pM): 3.7± 0.5%
- Percentage cytotoxicity at different concentrations (U373 (glioblastoma); 1nM): 3.1 ± 0.5%
- Percentage cytotoxicity at different concentrations (U373 (glioblastoma); 10nM): 5.0 ± 0.7%
- Percentage cytotoxicity at different concentrations (U373 (glioblastoma); 100nM): 4.5 ± 0.5%
- Percentage cytotoxicity at different concentrations (U373 (glioblastoma); 1µM): 17.06 ± 1.9%
- Percentage cytotoxicity at different concentrations (U373 (glioblastoma); 10µM): 37.2 ± 5.3%
- Percentage cytotoxicity at different concentrations (Su.86.86 (pancreas); Su8686, 100pM): Nil
- Percentage cytotoxicity at different concentrations (Su.86.86 (pancreas); Su8686, 1nM): 3 ± 0.3%
- Percentage cytotoxicity at different concentrations (Su.86.86 (pancreas); Su8686, 10nM): 12 ± 2.8%
- Percentage cytotoxicity at different concentrations (Su.86.86 (pancreas); Su8686, 100nM): 9 ± 3.8%
- Percentage cytotoxicity at different concentrations (Su.86.86 (pancreas); Su8686, 1µM): 22 ± 3.3%
- Percentage cytotoxicity at different concentrations (Su.86.86 (pancreas); Su8686, 10µM): 25 ± 4.3%
- Percentage cytotoxicity at different concentrations (PTC, (colon); 100pM): Nil
- Percentage cytotoxicity at different concentrations (PTC, (colon); 1nM): 3.1 ± 0.5%
- Percentage cytotoxicity at different concentrations (PTC, (colon); 10nM): 3.1 ± 1.9%
- Percentage cytotoxicity at different concentrations (PTC, (colon); 100nM): 6.7 ± 1.3%
- Percentage cytotoxicity at different concentrations (PTC, (colon); 1µM): 25.5 ± 4.8%
- Percentage cytotoxicity at different concentrations (PTC, (colon); 10µM): 35.5 ± 4.8%
- Percentage cytotoxicity at different concentrations (L132 (lung); 100pM): 18±3.4%
- Percentage cytotoxicity at different concentrations (L132 (lung); 1nM): 15 ± 5.8%
- Percentage cytotoxicity at different concentrations (L132 (lung); 10nM): 19 ± 3.3%
- Percentage cytotoxicity at different concentrations (L132 (lung); 100nM): 21 ± 1.2%
- Percentage cytotoxicity at different concentrations (L132 (lung); 1µM): 20 ± 2.3%
- Percentage cytotoxicity at different concentrations (L132 (lung); 10µM): 23 ± 2.3%
- Percentage cytotoxicity at different concentrations (MCF7 (breast); MCF-7, 100pM): Nil
- Percentage cytotoxicity at different concentrations (MCF7 (breast); MCF-7, 1nM): 2.4 ± 1.2%
- Percentage cytotoxicity at different concentrations (MCF7 (breast); MCF-7, 10nM): 7.5 ± 1.5%
- Percentage cytotoxicity at different concentrations (MCF7 (breast); MCF-7, 100nM): 8.6 ± 1.6%
- Percentage cytotoxicity at different concentrations (MCF7 (breast); MCF-7, 1µM): 12.4 ± 2.6%
- Percentage cytotoxicity at different concentrations (MCF7 (breast); MCF-7, 10µM): 18.4 ± 6.4%

SMILES: CC(=O)N[C@H](CCCNC(=N)N)C(=O)N1CCC[C@H]1C(=O)N[C@@H](CCCCN)C(=O)N1CCC[C@H]1C(=O)N[C@H](Cc1ccccc1)C(=O)N[C@@H](CCC(N)=O)C(=O)N[C@H](Cc1c[nH]c2ccccc12)C(=O)N[C@@H](Cc1ccccc1)C(=O)N[C@H](Cc1c[nH]c2ccccc12)C(=O)N[C@@H](CC(C)C)C(=O)NC1(C(N)=O)CCCC1 [SEQ ID NO: 6, Acetyl-D-Arg-Pro-Lys-Pro-D-Phe-Gln-D-Trp-Phe-D-Trp-Leu-Ac5c-NH2] (HELM PEPTIDE1{[ac].[dR].P.K.P.[dF].Q.[dW].F.[dW].L.[O=C(C1(N[*:1])CCCC1)[*:2]].[am]}$$$$V2.0)
- Percentage cytotoxicity at different concentrations (L132 (Lunng); 1nM): 14.9 ± 2.9%
- Percentage cytotoxicity at different concentrations (L132 (Lunng); 10nM): 24.7 ± 3.2%
- Percentage cytotoxicity at different concentrations (L132 (Lunng); 100nM): 19.5 ± 4.6%
- Percentage cytotoxicity at different concentrations (L132 (Lunng); 1µM): 19.7 ± 2.5%
- Percentage cytotoxicity at different concentrations (PA-1 (Ovary); 1nM): 8.0 ± 24%
- Percentage cytotoxicity at different concentrations (PA-1 (Ovary); 10nM): 22.0 ± 3.4%
- Percentage cytotoxicity at different concentrations (PA-1 (Ovary); 100nM): 25.4 ± 2.6%
- Percentage cytotoxicity at different concentrations (PA-1 (Ovary); 1µM): 13.9 ± 3.3%
- Percentage cytotoxicity at different concentrations (U87MG (Blioblastoma); 1nM): 26.9 ± 3.5%
- Percentage cytotoxicity at different concentrations (U87MG (Blioblastoma); 10nM): 32.9 ± 2.4%
- Percentage cytotoxicity at different concentrations (U87MG (Blioblastoma); 100nM): 34.7 ± 1.9%
- Percentage cytotoxicity at different concentrations (U87MG (Blioblastoma); 1µM): 31.8 ± 3.2%
- Percentage cytotoxicity at different concentrations (HBL100 (Breast); 1nM): 28.5 ± 4.5%
- Percentage cytotoxicity at different concentrations (HBL100 (Breast); 10nM): 28.4 ± 1.8%
- Percentage cytotoxicity at different concentrations (HBL100 (Breast); 100nM): 31.8 ± 1.5%
- Percentage cytotoxicity at different concentrations (KB (Oral squamous); 1nM): 28.0 ± 2.3%
- Percentage cytotoxicity at different concentrations (KB (Oral squamous); 10nM): 29.0 ± 1.3%
- Percentage cytotoxicity at different concentrations (KB (Oral squamous); 100nM): 18.0 ± 2.6%
- Percentage cytotoxicity at different concentrations (KB (Oral squamous); 1µM): 2.0 ± 1.3%
- Percentage cytotoxicity at different concentrations (ECV304 (Endothelial); 1nM): 9.0 ± 3.7%
- Percentage cytotoxicity at different concentrations (ECV304 (Endothelial); 10nM): 13.8 ± 3.3%
- Percentage cytotoxicity at different concentrations (ECV304 (Endothelial); 100nM): 15.9 ± 2.3%
- Percentage cytotoxicity at different concentrations (ECV304 (Endothelial); 1µM): 12.9 ± 2.2%
- Percentage cytotoxicity at different concentrations (HeP2 (Larngeal); 1nM): 10.0 ± 3.2%
- Percentage cytotoxicity at different concentrations (HeP2 (Larngeal); 10nM): 14.8 ± 4.4%
- Percentage cytotoxicity at different concentrations (HeP2 (Larngeal); 100nM): 24.9 ± 1.5%
- Percentage cytotoxicity at different concentrations (HeP2 (Larngeal); 1µM): 13.8 ± 2.4%

SMILES: CCCCCCCC(=O)N[C@H](CCCNC(=N)N)C(=O)N1CCC[C@H]1C(=O)N[C@@H](CCCCN)C(=O)N1CCC[C@H]1C(=O)N[C@H](Cc1ccccc1)C(=O)N[C@@H](CCC(N)=O)C(=O)N[C@H](Cc1c[nH]c2ccccc12)C(=O)N[C@@H](Cc1ccccc1)C(=O)N[C@H](Cc1c[nH]c2ccccc12)C(=O)N[C@@H](CC(C)C)C(=O)NC1(C(N)=O)CCCC1 [SEQ ID NO: 8, Octanoyl-D-Arg-Pro-Lys-Pro-D-Phe-Gln-D-Trp-Phe-D-Trp-Leu-Ac5c-NH2] (HELM PEPTIDE1{[CCCCCCCC(=O)[*:2]].[dR].P.K.P.[dF].Q.[dW].F.[dW].L.[O=C(C1(N[*:1])CCCC1)[*:2]].[am]}$$$$V2.0)
- Percentage cytotoxicity at different concentrations (L132 (Lunng); 1nM): 11.9 ± 4.9%
- Percentage cytotoxicity at different concentrations (L132 (Lunng); 10nM): 27.5 ± 3.5%
- Percentage cytotoxicity at different concentrations (L132 (Lunng); 100nM): 16.9 ± 3.6%
- Percentage cytotoxicity at different concentrations (L132 (Lunng); 1µM): 18.6 ± 2.4%
- Percentage cytotoxicity at different concentrations (PA-1 (Ovary); 1nM): 22.1 ± 3.4%
- Percentage cytotoxicity at different concentrations (PA-1 (Ovary); 10nM): 26.9 ± 3.4%
- Percentage cytotoxicity at different concentrations (PA-1 (Ovary); 100nM): 39.0 ± 2.6%
- Percentage cytotoxicity at different concentrations (PA-1 (Ovary); 1µM): 34.4 ± 3.4%
- Percentage cytotoxicity at different concentrations (U87MG (Blioblastoma); 1nM): 23.9 ± 3.3%
- Percentage cytotoxicity at different concentrations (U87MG (Blioblastoma); 10nM): 33.9 ± 2.2%
- Percentage cytotoxicity at different concentrations (U87MG (Blioblastoma); 100nM): 28.9 ± 1.4%
- Percentage cytotoxicity at different concentrations (U87MG (Blioblastoma); 1µM): 21.8 ± 3.4%
- Percentage cytotoxicity at different concentrations (HBL100 (Breast); 1nM): 9.0 ± 4.5%
- Percentage cytotoxicity at different concentrations (HBL100 (Breast); 10nM): 28.6 ± 3.8%
- Percentage cytotoxicity at different concentrations (HBL100 (Breast); 100nM): 30.6 ± 1.5%
- Percentage cytotoxicity at different concentrations (HBL100 (Breast); 1µM): 25.8 ± 1.4%
- Percentage cytotoxicity at different concentrations (KB (Oral squamous); 1nM): 28.0 ± 3.5%
- Percentage cytotoxicity at different concentrations (KB (Oral squamous); 10nM): 29.0%
- Percentage cytotoxicity at different concentrations (KB (Oral squamous); 100nM): 23.0 ± 3.2%
- Percentage cytotoxicity at different concentrations (KB (Oral squamous); 1µM): 19.0 ± 4.3%
- Percentage cytotoxicity at different concentrations (ECV304 (Endothelial); 1nM): 16.9 ± 3.5%
- Percentage cytotoxicity at different concentrations (ECV304 (Endothelial); 10nM): 31.9 ± 3.3%
- Percentage cytotoxicity at different concentrations (ECV304 (Endothelial); 100nM): 24.6 ± 2.3%
- Percentage cytotoxicity at different concentrations (ECV304 (Endothelial); 1µM): 17.9 ± 2.4%
- Percentage cytotoxicity at different concentrations (HeP2 (Larngeal); 1nM): 12.5 ± 3.2%
- Percentage cytotoxicity at different concentrations (HeP2 (Larngeal); 10nM): 15.5 ± 4.4%
- Percentage cytotoxicity at different concentrations (HeP2 (Larngeal); 100nM): 24.9 ± 2.5%
- Percentage cytotoxicity at different concentrations (HeP2 (Larngeal); 1µM): 12.9 ± 3.4%
